18 compounds from US9745320B2, “Five-and-six-membered heterocyclic compound, and preparation method, pharmaceutical composition and use thereof” (SHANGHAI CHEMEXPLORER CO., LTD., priority 2013, dated 2017) can be followed below.

Like-named read-outs stand apart in the source and are kept apart here.

One may read the IC50 as the midpoint of a concentration-inhibition curve.

Holding throughout (type): biochemical
In one test the target is JAK2 (Homo sapiens, UniProt O60674). The experiment in a line: JAK 2 enzymatic inhibitory activity IC50 assay (Caliper conversion rate). Particulars: Km ATP, 28° C., 1 hour. The essentials:
(§1)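 Human JAK1 or JAK2 enzyme was preincubated with graded compound (2% DMSO) in HEPES pH 7.5/Brij-35/DTT buffer (JAK1 also with Triton), then peptide substrate, 10 mM MgCl2 and ATP at Km were added. Reactions ran 1 hour at 28° C; Caliper conversion rate gave inhibition, averaged over two tests, for IC50.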

A further test has as its target JAK1 (Homo sapiens, UniProt P23458). The experiment in a line: JAK 1 enzymatic inhibitory activity IC50 assay (Caliper conversion rate). The settings on record: Km ATP, 28° C., 1 hour. The essentials: as §1
The next test deals with T1, JAK3 (Homo sapiens, UniProt P52333).
T1 sequence (P52333 1-1124): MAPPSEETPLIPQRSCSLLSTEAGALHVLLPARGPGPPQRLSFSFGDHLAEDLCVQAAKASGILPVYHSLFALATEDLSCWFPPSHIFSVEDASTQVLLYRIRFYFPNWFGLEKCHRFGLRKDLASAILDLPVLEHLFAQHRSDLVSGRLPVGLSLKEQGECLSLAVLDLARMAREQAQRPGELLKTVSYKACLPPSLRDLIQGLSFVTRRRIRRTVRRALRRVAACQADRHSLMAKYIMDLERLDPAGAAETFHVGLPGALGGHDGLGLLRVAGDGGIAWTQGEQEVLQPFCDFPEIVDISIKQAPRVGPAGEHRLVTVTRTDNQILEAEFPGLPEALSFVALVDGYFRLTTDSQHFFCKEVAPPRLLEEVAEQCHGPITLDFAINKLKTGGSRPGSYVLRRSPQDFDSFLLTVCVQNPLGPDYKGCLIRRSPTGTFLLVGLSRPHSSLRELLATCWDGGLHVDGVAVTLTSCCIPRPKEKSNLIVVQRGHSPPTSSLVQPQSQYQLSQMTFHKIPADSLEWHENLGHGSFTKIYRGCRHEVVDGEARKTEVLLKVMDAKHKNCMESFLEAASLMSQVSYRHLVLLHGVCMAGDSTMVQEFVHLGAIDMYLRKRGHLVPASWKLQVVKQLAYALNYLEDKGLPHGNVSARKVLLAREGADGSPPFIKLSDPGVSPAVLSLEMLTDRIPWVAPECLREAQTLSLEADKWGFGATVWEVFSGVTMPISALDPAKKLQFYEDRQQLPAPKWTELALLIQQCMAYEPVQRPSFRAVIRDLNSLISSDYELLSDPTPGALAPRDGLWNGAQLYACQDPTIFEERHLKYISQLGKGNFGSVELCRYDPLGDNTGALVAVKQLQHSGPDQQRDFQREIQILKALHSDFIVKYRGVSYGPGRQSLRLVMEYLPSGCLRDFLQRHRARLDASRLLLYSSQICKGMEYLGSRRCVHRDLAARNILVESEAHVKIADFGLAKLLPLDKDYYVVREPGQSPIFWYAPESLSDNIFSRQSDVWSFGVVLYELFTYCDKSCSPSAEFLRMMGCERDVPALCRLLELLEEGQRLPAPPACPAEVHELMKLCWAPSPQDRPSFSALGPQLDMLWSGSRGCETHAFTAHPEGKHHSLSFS
Put plainly: JAK 3 enzymatic inhibitory activity IC50 assay (Caliper conversion rate).

Setting [1] is: Km ATP, 28° C., 1 hour, read-out: JAK 3 enzymatic inhibitory activity IC50.

Chain of JAK1 (P23458 whole entry, species assumed): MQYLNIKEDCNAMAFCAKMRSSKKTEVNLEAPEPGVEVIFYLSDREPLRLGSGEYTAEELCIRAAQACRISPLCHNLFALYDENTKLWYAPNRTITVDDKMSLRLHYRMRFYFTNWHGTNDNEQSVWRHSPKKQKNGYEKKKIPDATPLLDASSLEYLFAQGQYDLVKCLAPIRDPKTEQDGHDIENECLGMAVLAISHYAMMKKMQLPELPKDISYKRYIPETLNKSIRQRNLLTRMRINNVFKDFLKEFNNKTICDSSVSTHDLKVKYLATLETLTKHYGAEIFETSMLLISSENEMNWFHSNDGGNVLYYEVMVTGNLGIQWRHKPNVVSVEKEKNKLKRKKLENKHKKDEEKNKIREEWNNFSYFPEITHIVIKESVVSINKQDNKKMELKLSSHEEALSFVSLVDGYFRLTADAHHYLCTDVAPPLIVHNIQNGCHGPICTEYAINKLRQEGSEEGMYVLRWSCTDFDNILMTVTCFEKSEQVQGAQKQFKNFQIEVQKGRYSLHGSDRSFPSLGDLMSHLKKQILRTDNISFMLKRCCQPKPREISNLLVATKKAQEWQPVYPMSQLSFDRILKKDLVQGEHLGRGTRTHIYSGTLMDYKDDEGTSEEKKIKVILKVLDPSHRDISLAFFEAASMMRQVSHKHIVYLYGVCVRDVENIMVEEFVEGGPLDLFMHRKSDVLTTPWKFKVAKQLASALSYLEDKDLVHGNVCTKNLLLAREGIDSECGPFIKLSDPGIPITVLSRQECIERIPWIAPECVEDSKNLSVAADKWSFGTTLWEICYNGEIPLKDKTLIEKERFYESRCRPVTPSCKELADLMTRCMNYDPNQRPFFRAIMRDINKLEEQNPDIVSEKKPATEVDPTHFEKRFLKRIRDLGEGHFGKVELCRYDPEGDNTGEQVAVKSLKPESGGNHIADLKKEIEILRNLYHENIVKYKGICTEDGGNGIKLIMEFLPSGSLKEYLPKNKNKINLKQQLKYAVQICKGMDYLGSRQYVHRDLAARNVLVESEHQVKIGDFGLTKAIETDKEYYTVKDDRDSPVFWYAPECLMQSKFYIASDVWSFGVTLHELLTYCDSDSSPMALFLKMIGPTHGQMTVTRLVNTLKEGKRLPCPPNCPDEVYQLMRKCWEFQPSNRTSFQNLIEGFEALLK
Chain of JAK2 (O60674 whole entry, species assumed): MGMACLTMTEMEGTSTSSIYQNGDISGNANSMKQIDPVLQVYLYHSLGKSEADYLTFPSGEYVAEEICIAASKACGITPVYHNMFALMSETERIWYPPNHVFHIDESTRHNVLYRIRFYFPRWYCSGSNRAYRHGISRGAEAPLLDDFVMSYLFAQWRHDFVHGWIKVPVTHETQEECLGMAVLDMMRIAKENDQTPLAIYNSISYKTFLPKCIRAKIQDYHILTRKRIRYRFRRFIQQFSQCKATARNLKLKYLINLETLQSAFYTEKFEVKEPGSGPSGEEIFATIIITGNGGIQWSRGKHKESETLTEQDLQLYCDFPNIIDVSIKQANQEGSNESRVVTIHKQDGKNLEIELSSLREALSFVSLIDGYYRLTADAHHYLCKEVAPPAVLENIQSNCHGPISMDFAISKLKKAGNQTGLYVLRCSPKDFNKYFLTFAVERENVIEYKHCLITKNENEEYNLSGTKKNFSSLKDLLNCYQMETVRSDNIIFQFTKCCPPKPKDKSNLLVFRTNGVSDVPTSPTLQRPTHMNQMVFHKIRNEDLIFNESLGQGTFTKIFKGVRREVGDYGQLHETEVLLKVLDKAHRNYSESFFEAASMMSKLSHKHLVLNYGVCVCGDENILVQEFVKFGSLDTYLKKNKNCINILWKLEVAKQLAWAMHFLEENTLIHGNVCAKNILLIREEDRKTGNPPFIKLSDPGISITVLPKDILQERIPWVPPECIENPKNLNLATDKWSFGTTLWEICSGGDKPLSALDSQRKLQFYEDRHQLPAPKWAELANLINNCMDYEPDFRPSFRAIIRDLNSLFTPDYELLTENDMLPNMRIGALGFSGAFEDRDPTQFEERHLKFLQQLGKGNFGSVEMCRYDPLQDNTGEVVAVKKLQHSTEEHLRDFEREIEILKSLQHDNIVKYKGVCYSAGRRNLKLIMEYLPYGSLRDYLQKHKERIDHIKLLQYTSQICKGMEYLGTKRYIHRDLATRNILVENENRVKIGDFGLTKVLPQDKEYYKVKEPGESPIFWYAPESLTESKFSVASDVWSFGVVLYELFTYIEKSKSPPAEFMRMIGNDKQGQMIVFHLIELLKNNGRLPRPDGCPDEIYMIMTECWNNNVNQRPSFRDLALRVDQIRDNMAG

With `CCS(=O)(=O)N1CC(CC#N)(n2cc(-c3nc(Nc4cnn(C5CN(C)C5)c4)nc4ccsc34)cn2)C1` [Compound T-54, 2-(1-(Ethylsulfonyl)-3-(4-(2-((1-(1-methylazetidin-3-yl)-1H-pyrazol-4-yl)amino)thieno[3,2-d]pyrimidin-4-yl)-1H-pyrazol-1-yl)azetidin-3-yl)acetonitrile], the figures for the concentration for half-maximal inhibition (IC50) at JAK2, on JAK1 and at JAK3 (setting [1]) were below 50 nM, 50 to 500 nM and 50 to 500 nM, respectively.
Turning to `CCS(=O)(=O)N1CC(CC#N)(n2cc(-c3cc(Nc4ccccc4)nc4ccnn34)cn2)C1` [Compound T-55, 2-(1-(Ethylsulfonyl)-3-(4-(5-(phenylamino)pyrazolo[1,5-a]pyrimidin-7-yl)-1H-pyrazol-1-yl)azetidin-3-yl)acetonitrile], the IC50 at JAK2, against JAK1 and on JAK3 was above 1000 nM throughout.
For the compound `N#Cc1ccc(-c2nc(Nc3ccccc3)nc3ccsc23)cc1F` [Compound T-56, 2-Fluoro-4-(2-(phenylamino)thieno[3,2-d]pyrimidin-4-yl)benzonitrile], the IC50 at JAK2, on JAK1 and at JAK3 (setting [1]) was above 1000 nM in each case.
With `CCS(=O)(=O)N1CC(CC#N)(n2cc(-c3nc(Nc4ccc5[nH]ncc5c4)nc4ccsc34)cn2)C1` [Compound T-57, 2-(3-(4-(2-((1H-Indazol-5-yl)amino)thieno[3,2-d]pyrimidin-4-yl)-1H-pyrazol-1-yl)-1-(ethylsulfonyl)azetidin-3-yl)acetonitrile], the IC50 against JAK2 is below 50 nM; against JAK1, 50 to 500 nM; at JAK3 (setting [1]), 50 to 500 nM.
For `CCS(=O)(=O)N1CC(CC#N)(n2cc(-c3nc(Nc4ccc5[nH]cnc5c4)nc4ccsc34)cn2)C1` [Compound T-58, 2-(3-(4-(2-((1H-Benzo[d]imidazol-5-yl)amino)thieno[3,2-d]pyrimidin-4-yl)-1H-pyrazol-1-yl)-1-(ethylsulfonyl)azetidin-3-yl)acetonitrile], the half-maximal inhibitory concentration (IC50) against JAK2 is below 50 nM; against JAK1, below 50 nM; on JAK3 (setting [1]), 50 to 500 nM.
For `CCS(=O)(=O)N1CC(CC#N)(n2cc(-c3nc(Nc4ccc(-n5cnnn5)cc4)nc4ccsc34)cn2)C1` [Compound T-59, 2-(3-(4-(2-((4-(1H-Tetrazol-1-yl)phenyl)amino)thieno[3,2-d]pyrimidin-4-yl)-1H-pyrazol-1-yl)-1-(ethylsulfonyl)azetidin-3-yl)acetonitrile], the IC50 at JAK2 was below 50 nM; against JAK1, below 50 nM; on JAK3 (setting [1]), 50 to 500 nM.
As to `CCS(=O)(=O)N1CC(CC#N)(n2cc(-c3nc(Nc4cnn(CCCN5CCOCC5)c4)nc4ccsc34)cn2)C1` [Compound T-60, 2-(1-(Ethylsulfonyl)-3-(4-(2-((1-(3-morpholinopropyl)-1H-pyrazol-4-yl)amino)thieno[3,2-d]pyrimidin-4-yl)-1H-pyrazol-1-yl)azetidin-3-yl)acetonitrile], the half-maximal inhibitory concentration (IC50) against JAK2, on JAK1 and at JAK3 (setting [1]) was below 50 nM each time.
For `CCS(=O)(=O)N1CC(CC#N)(n2cc(-c3nc(Nc4cnn(CCCc5nn[nH]n5)c4)nc4ccsc34)cn2)C1` [Compound T-61, 2-(3-(4-(2-((1-(3-(2H-Tetrazol-5-yl)propyl)-1H-pyrazol-4-yl)amino)thieno[3,2-d]pyrimidin-4-yl)-1H-pyrazol-1-yl)-1-(ethylsulfonyl)azetidin-3-yl)acetonitrile], the IC50 against JAK2, on JAK1 and at JAK3 (setting [1]) was below 50 nM in each case.
Take `CCS(=O)(=O)N1CC(CC#N)(n2cc(-c3nc(Nc4ccc(N5CCOCC5)nc4)nc4ccsc34)cn2)C1` [Compound T-62, 2-(1-(Ethylsulfonyl)-3-(4-(2-((6-morpholinopyridin-3-yl)amino)thieno[3,2-d]pyrimidin-4-yl)-1H-pyrazol-1-yl)azetidin-3-yl)acetonitrile]: the half-inhibitory concentration (IC50) at JAK2 was below 50 nM; against JAK1, 50 to 500 nM; at JAK3 (setting [1]) it was 50 to 500 nM.
As to `CCS(=O)(=O)N1CC(CC#N)(n2cc(-c3nc(Nc4cnc(N5CCOCC5)nc4)nc4ccsc34)cn2)C1` [Compound T-63, 2-(1-(Ethylsulfonyl)-3-(4-(2-((2-morpholinopyrimidin-5-yl)amino)thieno[3,2-d]pyrimidin-4-yl)-1H-pyrazol-1-yl)azetidin-3-yl)acetonitrile], the IC50 against JAK2 was below 50 nM; at JAK1, 500 to 1000 nM; on JAK3 (setting [1]) it was 500 to 1000 nM.
On to `CCS(=O)(=O)N1CC(CC#N)(n2cc(-c3nc(Nc4cnn(C5CCN(C)CC5)c4)nc4ccsc34)cn2)C1` [Compound T-64, 2-(1-(Ethylsulfonyl)-3-(4-(2-((1-(1-methylpiperidin-4-yl)-1H-pyrazol-4-yl)amino)thieno[3,2-d]pyrimidin-4-yl)-1H-pyrazol-1-yl)azetidin-3-yl)acetonitrile], for which the half-maximal inhibitory concentration (IC50) against JAK2, at JAK1 and on JAK3 (setting [1]) was below 50 nM in each case.
For the compound `CCS(=O)(=O)N1CC(CC#N)(n2cc(-c3nc(Nc4cnn(C5CNC5)c4)nc4ccsc34)cn2)C1` [Compound T-65, 2-(3-(4-(2-((1-(Azetidin-3-yl)-1H-pyrazol-4-yl)amino)thieno[3,2-d]pyrimidin-4-yl)-1H-pyrazol-1-yl)-1-(ethylsulfonyl)azetidin-3-yl)acetonitrile], the values for the IC50 against JAK2, against JAK1 and at JAK3 (setting [1]) were below 50 nM, below 50 nM and 50 to 500 nM, respectively.
Take `CCS(=O)(=O)N1CC(CC#N)(n2cc(-c3nc(Nc4cnn(C5CN(CC6CC6)C5)c4)nc4ccsc34)cn2)C1` [Compound T-66, 2-(3-(4-(2-((1-(1-(Cyclopropylmethyl)azetidin-3-yl)-1H-pyrazol-4-yl)amino)thieno[3,2-d]pyrimidin-4-yl)-1H-pyrazol-1-yl)-1-(ethylsulfonyl)azetidin-3-yl)acetonitrile]: the IC50 against JAK2, against JAK1 and at JAK3 (setting [1]) was below 50 nM throughout.
For the compound `CCS(=O)(=O)N1CC(CC#N)(n2cc(-c3nc(Nc4cnn(CCCN5CCN(C)CC5)c4)nc4ccsc34)cn2)C1` [Compound T-67, 2-(1-(Ethylsulfonyl)-3-(4-(2-((1-(3-(4-methylpiperazin-1-yl)propyl)-1H-pyrazol-4-yl)amino)thieno[3,2-d]pyrimidin-4-yl)-1H-pyrazol-1-yl)azetidin-3-yl)acetonitrile], the concentration for half-maximal inhibition (IC50) against JAK2 was below 50 nM; at JAK1, 50 to 500 nM; at JAK3 (setting [1]) it was below 50 nM.
Turning to `CCS(=O)(=O)N1CC(CC#N)(n2cc(-c3nc(Nc4cnn(C)c4)nc4cc(Cl)sc34)cn2)C1` [Compound T-68, 2-(3-(4-(6-Chloro-2-((1-methyl-1H-pyrazol-4-yl)amino)thieno[3,2-d]pyrimidin-4-yl)-1H-pyrazol-1-yl)-1-(ethylsulfonyl)azetidin-3-yl)acetonitrile], the IC50 at JAK2 was 50 to 500 nM; on JAK1, above 1000 nM; at JAK3 (setting [1]) it was above 1000 nM.
`CCS(=O)(=O)N1CC(CC#N)(n2cc(-c3nc(Nc4cnn(CC(F)(F)F)c4)nc4ccsc34)cn2)C1` [Compound T-69, 2-(1-(Ethylsulfonyl)-3-(4-(2-((1-(2,2,2-trifluoroethyl)-1H-pyrazol-4-yl)amino)thieno[3,2-d]pyrimidin-4-yl)-1H-pyrazol-1-yl)azetidin-3-yl)acetonitrile]: the IC50 against JAK2 is below 50 nM; against JAK1, below 50 nM; on JAK3 (setting [1]) it was 50 to 500 nM.
Regarding `CCS(=O)(=O)N1CC(CC#N)(n2cc(-c3nc(Nc4cnn(CCOC)c4)nc4ccsc34)cn2)C1` [Compound T-70, 2-(1-(Ethylsulfonyl)-3-(4-(2-((1-(2-methoxyethyl)-1H-pyrazol-4-yl)amino)thieno[3,2-d]pyrimidin-4-yl)-1H-pyrazol-1-yl)azetidin-3-yl)acetonitrile], the IC50 against JAK2, against JAK1 and on JAK3 (setting [1]) was below 50 nM each time.
In the case of `CCS(=O)(=O)N1CC(CC#N)(n2cc(-c3nc(Nc4cnn(CCC#N)c4)nc4ccsc34)cn2)C1` [Compound T-71, 3-(4-((4-(1-(3-(Cyanomethyl)-1-(ethylsulfonyl)azetidin-3-yl)-1H-pyrazol-4-yl)thieno[3,2-d]pyrimidin-2-yl)amino)-1H-pyrazol-1-yl)propanenitrile], the half-inhibitory concentration (IC50) at JAK2, against JAK1 and on JAK3 (setting [1]) was below 50 nM in each case.
